Values of other authors as cited in article PMC8799869, “D-enantiomers of CATH-2 enhance the response of macrophages against Streptococcus suis serotype 2” (Journal of Advanced Research, 2021).

Settings: intravenous administration; blood and peritoneum; cited from earlier work
Description: In this study injection of D-C(1–21) reduced disease severity and increased the survival rate, although the differ ...

Substance: LL-37
- survival and bacterial load in septic mice: improved the survival and reduced the bacterial load
